Experimental data published in patent US20060189602A1, “Pyridazinone compounds” (Anadys Pharmaceuticals, Inc., priority 2004, published 2006).

target: HCV NS5B polymerase (Hepatitis C virus genotype 1b, UniProt P26663); assay: NS5B Polymerase Inhibition Assay; assay type: biochemical; conditions: 50 nM enzyme, [α-33P]GTP, oligo (rG13)/poly rC, 75 min at 28° C.
Procedure: NS5B Polymerase Inhibition Assay
Compounds were tested for HCV polymerase inhibition. Assays were performed in a 96-well streptavidin-coated FlashPlate using 50 nM enzyme, 0.5 μCi of [α-^33P]GTP, 0.63 μM GTP, and 250 nM 5′biotinylated oligo (rG13)/poly rC in 20 mM Tris-HCl, pH 7.5, 5 mM MgCl2, 20 mM NaCl, 5 mM dithiothreitol, and 0.1 g/L BSA. The reaction was stopped by aspiration after 75 min at 28° C. and the plate was washed several times. After washing, incorporated radioactivity was counted using a Microbeta scintillation counter.

Sequence of HCV NS5B polymerase (P26663 2420-3010): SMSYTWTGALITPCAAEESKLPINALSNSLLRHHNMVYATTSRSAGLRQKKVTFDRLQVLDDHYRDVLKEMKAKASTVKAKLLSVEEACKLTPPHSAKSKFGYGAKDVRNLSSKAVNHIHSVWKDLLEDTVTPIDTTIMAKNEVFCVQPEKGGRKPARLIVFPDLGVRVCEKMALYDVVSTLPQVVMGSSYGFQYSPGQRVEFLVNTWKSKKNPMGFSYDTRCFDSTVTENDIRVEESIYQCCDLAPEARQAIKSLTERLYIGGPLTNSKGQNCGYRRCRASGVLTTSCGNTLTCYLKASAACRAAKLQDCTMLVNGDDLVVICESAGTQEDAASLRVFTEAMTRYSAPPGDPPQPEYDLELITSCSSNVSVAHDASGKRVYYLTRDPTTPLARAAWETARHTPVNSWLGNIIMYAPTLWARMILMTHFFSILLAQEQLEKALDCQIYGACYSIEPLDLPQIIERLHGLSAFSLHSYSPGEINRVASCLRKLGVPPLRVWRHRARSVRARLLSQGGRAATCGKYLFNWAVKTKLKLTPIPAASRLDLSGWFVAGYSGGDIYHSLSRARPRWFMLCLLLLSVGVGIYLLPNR

Row | IC50 | Structure (SMILES)
1 | < 10 µM | COc1ccc2c(c1)S(=O)(=O)NC(c1c(O)c(-c3cccs3)nn(CCC3CC3)c1=O)=N2 [Compound 3, 2-(2-Cyclopropyl-ethyl)-5-hydroxy-4-(7-methoxy-1,1-dioxo-1,2-di-hydro-1λ^6-benzo[1,2,4]thiadiazin-3-yl)-6-thiophen-2-yl-2H-py-ridazin-3-one]
2 | 10 to 50 µM | COc1ccc2c(c1)S(=O)(=O)NC(c1c(O)c(-c3cccs3)nn(Cc3ccccc3)c1=O)=N2 [Compound 5, 2-Benzyl-5-hydroxy-4-(7-methoxy-1,1-dioxo-1,2-dihydro-1λ^6-ben-zo[1,2,4]thiadiazin-3-yl)-6-thiophen-2-yl-2H-py-ridazin-3-one]
3 | < 10 µM | O=c1c(C2=Nc3ccc(O)cc3S(=O)(=O)N2)c(O)c(-c2cccs2)nn1Cc1ccccc1 [Compound 6, 2-Benzyl-5-hydroxy-4-(7-hydroxy-1,1-dioxo-1,2-dihydro-1λ^6-ben-zo[1,2,4]thiadiazin-3-yl)-6-thiophen-2-yl-2H-pyridazin-3-one]
4 | < 10 µM | O=c1c(C2=Nc3ccc(O)cc3S(=O)(=O)N2)c(O)c(-c2cccs2)nn1CCC1CC1 [Compound 7, 2-(2-Cyclopropyl-ethyl)-5-hydroxy-4-(7-hydroxy-1,1-dioxo-1,2-di-hydro-1λ^6-benzo[1,2,4]thiadiazin-3-yl)-6-thiophen-2-yl-2H-py-ridazin-3-one]
5 | 10 to 50 µM | COc1ccc2c(c1)S(=O)(=O)NC(c1c(O)c(-c3ccc(C)s3)nn(CCC(C)C)c1=O)=N2 [Compound 9, 5-Hydroxy-4-(7-methoxy-1,1-dioxo-1,2-dihydro-1λ^6-ben-zo[1,2,4]thiadiazin-3-yl)-2-(3-methyl-butyl)-6-(5-methyl-thio-phen-2-yl)-2H-pyridazin-3-one]
6 | 10 to 50 µM | CCCCn1nc(C(C)C)c(O)c(C2=Nc3ccc(OC)cc3S(=O)(=O)N2)c1=O [Compound 10, 2-Butyl-5-hydroxy-6-isopropyl-4-(7-methoxy-1,1-dioxo-1,2-di-hydro-1λ^6-benzo[1,2,4]thiadiazin-3-yl)-2H-pyridazin-3-one]
7 | < 10 µM | CCCCn1nc(C(C)C)c(O)c(C2=Nc3ccc(O)cc3S(=O)(=O)N2)c1=O [Compound 11, 2-Butyl-5-hydroxy-4-(7-hydroxy-1,1-dioxo-1,2-dihydro-1λ^6-ben-zo[1,2,4]thiadiazin-3-yl)-6-isopropyl-2H-pyridazin-3-one]
8 | < 10 µM | CCCCn1nc(C(C)C)c(O)c(C2=Nc3ccc(OCC(N)=O)cc3S(=O)(=O)N2)c1=O [Compound 12, 2-[3-(2-Butyl-5-hydroxy-6-isopropyl-3-oxo-2,3-dihydro-py-ridazin-4-yl)-1,1-dioxo-1,2-dihdyro-1λ^6-ben-zo[1,2,4]thiadiazin-7-yloxy]-actamide]
9 | 10 to 50 µM | CCCCn1nc(C(C)(C)CO)c(O)c(C2=Nc3ccc(OC)cc3S(=O)(=O)N2)c1=O [Compound 14, 2-Butyl-5-hydroxy-6-(2-hydroxy-1,1-dimethyl-ethyl)-4-(7-meth-oxy-1,1-dioxo-1,2-dihydro-1λ^6-benzo[1,2,4]thiadiazin-3-yl)-2H-py-ridazin-3-one]
10 | 10 to 50 µM | CCCCn1nc(-c2ccccc2)c(O)c(C2=Nc3ccc(OC)cc3S(=O)(=O)N2)c1=O [Compound 15, 2-Butyl-5-hydroxy-4-(7-methoxy-1,1-dioxo-1,2-dihydro-1λ^6-ben-zo[1,2,4]thiadiazin-3-yl)-6-phenyl-2H-pyridazin-3-one]
11 | < 10 µM | CCCCn1nc(-c2cccs2)c(O)c(C2=Nc3ccc(OC)cc3S(=O)(=O)N2)c1=O [Compound 17, 2-Butyl-5-hydroxy-4-(7-methoxy-1,1-dioxo-1,2-dihydro-1λ^6-ben-zo[1,2,4]thiadiazin-3-yl)-6-thiophen-2-yl-2H-pyridazin-3-one]
12 | 10 to 50 µM | O=c1c(C2=Nc3ccc(O)cc3S(=O)(=O)N2)c(O)c(-c2cccs2)nn1Cc1c(F)cccc1Cl [Compound 19, 2-(2-Chloro-6-fluoro-benzyl)-5-hydroxy-4-(7-hydroxy-1,1-di-oxo-1,2-dihydro-1λ^6-benzo[1,2,4]thiadiazin-3-yl)-6-thio-phen-2-yl-2H-pyridazin-3-one]
13 | < 10 µM | CC(C)CCn1nc(-c2cccs2)c(O)c(C2=Nc3ccc(OCC(=O)N4CCC(N)C4)cc3S(=O)(=O)N2)c1=O (centres unmarked) [Compound 21, 4-{7-[2-(3-Amino-pyrrolidin-1-yl)-2-oxo-ethoxy]-1,1-dioxo-1,2-di-hydro-1λ^6-benzo[1,2,4]thiadiazin-3-yl}-5-hydroxy-2-(3-methyl-butyl)-6-thiophen-2-yl-2H-pyridazin-3-one]
14 | 10 to 50 µM | COc1ccc2c(c1)S(=O)(=O)NC(c1c(O)c(C(C)C)nn(CCC(C)C)c1=O)=N2 [Compound 26, 5-Hydroxy-6-isopropyl-4-(7-methoxy-1,1-dioxo-1,2-dihydro-1λ^6-ben-zo[1,2,4]thiadiazin-3-yl)-2-(3-methyl-butyl)-2H-py-ridazin-3-one]
15 | 10 to 50 µM | CC(C)CCn1nc(C(C)C)c(O)c(C2=Nc3ccccc3S(=O)(=O)N2)c1=O [Compound 27, 4-(1,1-Dioxo-1,2-dihydro-1λ^6-benzo[1,2,4]thiadiazin-3-yl)-5-hy-droxy-6-isopropyl-2-(3-methyl-butyl)-2H-pyridazin-3-one]
16 | 10 to 50 µM | COc1ccc2c(c1)S(=O)(=O)NC(c1c(O)c(-c3cccn3C)nn(CCC(C)C)c1=O)=N2 [Compound 28, 5-Hydroxy-4-(7-methoxy-1,1-dioxo-1,2-dihydro-1λ^6-ben-zo[1,2,4]thiadiazin-3-yl)-2-(3-methyl-butyl)-6-(1-methyl-1H-pyr-rol-2-yl)-2H-pyridazin-3-one]
17 | 10 to 50 µM | CC(C)CCn1nc(C(C)C)c(O)c(C2=Nc3ccc(O)cc3S(=O)(=O)N2)c1=O [Compound 29, 5-Hydroxy-4-(7-hydroxy-1,1-dioxo-1,2-dihydro-1λ^6-ben-zo[1,2,4]thiadiazin-3-yl)-6-isopropyl-2-(3-methyl-butyl)-2H-py-ridazin-3-one]
18 | < 10 µM | CC(C)CCn1nc(-c2cccs2)c(O)c(C2=Nc3ccncc3S(=O)(=O)N2)c1=O [Compound 30, 4-(1,1-Dioxo-1,2-dihydro-1λ^6-pyrido[4,3-e][1,2,4]thiadiazin-3-yl)-5-hy-droxy-2-(3-methyl-butyl)-6-thiophen-2-yl-2H-py-ridazin-3-one]
19 | < 10 µM | COc1ccc2c(c1)S(=O)(=O)NC(c1c(O)c(-c3ccco3)nn(CCC(C)C)c1=O)=N2 [Compound 32, 6-Furan-2-yl-5-hydroxy-4-(7-methoxy-1,1-dioxo-1,2-dihydro-1λ^6-ben-zo[1,2,4]thiadiazin-3-yl)-2-(3-methyl-butyl)-2H-py-ridazin-3-one]
20 | < 10 µM | CC(C)CCn1nc(C(C)C)c(O)c(C2=Nc3ccc(OCC(N)=O)cc3S(=O)(=O)N2)c1=O [Compound 33, 2-{3-[5-Hydroxy-6-isopropyl-2-(3-methyl-butyl)-3-oxo-2,3-di-hydro-pyridazin-4-yl]-1,1-dioxo-1,2-dihydro-1λ^6-ben-zo[1,2,4]thiadiazin-7-yloxy}-acetamide]
21 | < 10 µM | CCCCn1nc(CCC(C)C)c(O)c(C2=Nc3ccc(OC)cc3S(=O)(=O)N2)c1=O [Compound 34, 2-Butyl-5-hydroxy-4-(7-methoxy-1,1-dioxo-1,2-dihydro-1λ^6-ben-zo[1,2,4]thiadiazin-3-yl)-6-(3-methyl-butyl)-2H-pyridazin-3-one]
22 | < 10 µM | CCCCc1nn(CCC(C)C)c(=O)c(C2=Nc3ccc(OC)cc3S(=O)(=O)N2)c1O [Compound 35, 6-Butyl-5-hydroxy-4-(7-methoxy-1,1-dioxo-1,2-dihdyro-1λ^6-ben-zo[1,2,4]thiadiazin-3-yl)-2-(3-methyl-butyl)-2H-pyridazin-3-one]
23 | < 10 µM | CCCCc1nn(CCC(C)C)c(=O)c(C2=Nc3ccc(O)cc3S(=O)(=O)N2)c1O [Compound 36, 6-Butyl-5-hydroxy-4-(7-hydroxy-1,1-dioxo-1,2-dihydro-1λ^6-ben-zo[1,2,4]thiadiazin-3-yl)-2-(3-methyl-butyl)-2H-pyridazin-3-one]
24 | < 10 µM | CCCCn1nc(CCC(C)C)c(O)c(C2=Nc3ccc(O)cc3S(=O)(=O)N2)c1=O [Compound 38, 2-Butyl-5-hydroxy-4-(7-hydroxy-1,1-dioxo-1,2-dihydro-1λ^6-ben-zo[1,2,4]thiadiazin-3-yl)-6-(3-methyl-butyl)-2H-pyridazin-3-one]
25 | < 10 µM | CCCCn1nc(CCC(C)C)c(O)c(C2=Nc3ccc(OCC(N)=O)cc3S(=O)(=O)N2)c1=O [Compound 39, 2-{3-[2-Butyl-5-hydroxy-6-(3-methyl-butyl)-3-oxo-2,3-di-hydro-pyridazin-4-yl]-1,1-dioxo-1,2-dihydro-1λ^6-ben-zo[1,2,4]thiadiazin-7-yloxy}-acetamide]
26 | 10 to 50 µM | CCCCc1nn(CCCC)c(=O)c(C2=Nc3ccc(OC)cc3S(=O)(=O)N2)c1O [Compound 40, 2,6-Dibutyl-5-hydroxy-4-(7-methoxy-1,1-dioxo-1,2-dihydro-1λ^6-ben-zo[1,2,4]thiadiazin-3-yl)-2H-pyridazin-3-one]
27 | 10 to 50 µM | CC(C)c1nn(Cc2ccccc2)c(=O)c(C2=Nc3ccccc3S(=O)(=O)N2)c1O [Compound 41, 2-Benzyl-4-(1,1-dioxo-1,2-dihydro-1λ^6-ben-zo[1,2,4]thiadiazin-3-yl)-5-hydroxy-6-isopropyl-2H-py-ridazin-3-one]
28 | < 10 µM | CCCc1nn(CCC(C)C)c(=O)c(C2=Nc3ccc(OC)cc3S(=O)(=O)N2)c1O [Compound 42, 5-Hydroxy-4-(7-methoxy-1,1-dioxo-1,2-dihydro-1λ^6-ben-zo[1,2,4]thiadiazin-3-yl)-2-(3-methyl-butyl)-6-propyl-2H-py-ridazin-3-one]
29 | < 10 µM | CCCCc1nn(CCCC)c(=O)c(C2=Nc3ccc(O)cc3S(=O)(=O)N2)c1O [Compound 45, 2,6-Dibutyl-5-hydroxy-4-(7-hydroxy-1,1-dioxo-1,2-dihydro-1λ^6-ben-zo[1,2,4]thiadiazin-3-yl)-2H-pyridazin-3-one]
